Patent publication US11084800B2 (Achillion Pharmaceuticals, Inc., priority 2017, dated 2021)

Target: Human Factor D (Homo sapiens (Human), UniProt P00746)
Assay: Human Factor D Assay
Format: biochemical
Conditions: Table 6; Factor D 80 nM, substrate Z-L-Lys-SBz; read-out: IC50
Experimental: The assay of Example 10 was used to determine the IC50's of the compounds. Other standard factor D inhibition assays are also available.
Human Factor D (purified from human serum, Complement Technology, Inc.) at 80 nM final concentration is incubated with test compound at various concentrations for 5 min at room temperature in 50 mM Tris, 1M NaCl, pH 7.5. A synthetic substrate Z-L-Lys-SBz and DTNB (Ellman's reagent) are added to final concentrations of 100 μM each. Absorbance at 405 nm (A405) is recorded at 30 second intervals for 30 min using a microplate spectrophotometer. IC50 values are calculated by nonlinear regression of complement Factor D reaction rates as a function of test compound concentration.

Human Factor D, sequence (P00746 26-253): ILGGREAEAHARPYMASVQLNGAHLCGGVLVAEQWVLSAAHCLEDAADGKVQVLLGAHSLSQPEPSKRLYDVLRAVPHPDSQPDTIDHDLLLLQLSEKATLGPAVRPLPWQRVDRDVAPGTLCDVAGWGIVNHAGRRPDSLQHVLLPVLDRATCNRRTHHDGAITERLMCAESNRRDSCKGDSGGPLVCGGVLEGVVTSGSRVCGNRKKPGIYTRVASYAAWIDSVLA

SMILES	IC50
CC(=O)c1nn(CC(=O)N2C3CC3(CN3CC4CCCC4C3)C[C@H]2C(=O)Nc2nc(Br)ccc2C)c2ccc(-c3cnc(C)nc3)cc12 (stereo partly drawn) [Compound 11, (3S)-2-(2-(3-Acetyl-5-(2-methylpyrimidin-5-yl)-1H-indazol-1-yl)acetyl)-N-(6-bromo-3-methylpyridin-2-yl)-5-((hexahydrocyclopenta[c]pyrrol-2(1H)-yl)methyl)-2-azabicyclo[3.1.0]hexane-3-carboxamide]	< 1000 nM
CC(=O)c1nn(CC(=O)N2C3CC3(CN3CC4CC(C4)C3)C[C@H]2C(=O)Nc2nc(Br)ccc2C)c2ccc(-c3cnc(C)nc3)cc12 (some centres unmarked) [Compound 12]	< 1000 nM
CC(=O)c1nn(CC(=O)N2[C@H](C(=O)Nc3nc(Br)ccc3C(C)C)C[C@@]3(C)C[C@@H]23)c2ccc(-c3cnc(C)nc3)cc12 [Compound 14, (1R,3S,5R)-2-(2-(3-Acetyl-5-(2-methylpyrimidin-5-yl)-1H-indazol-1-yl)acetyl)-N-(6-bromo-3-isopropylpyridin-2-yl)-5-methyl-2-azabicyclo[3.1.0]hexane-3-carboxamide]	< 1000 nM
CC(=O)c1nn(CC(=O)N2[C@H](C(=O)Nc3nc(Br)ccc3C)C[C@@]3(C)C[C@@H]23)c2cnc(-c3cnc(C)nc3)cc12 [Compound 15, (1R,3S,5R)-2-(2-(3-Acetyl-5-(2-methylpyrimidin-5-yl)-1H-pyrazolo[3,4-c]pyridin-1-yl)acetyl)-N-(6-bromo-3-methylpyridin-2-yl)-5-methyl-2-azabicyclo[3.1.0]hexane-3-carboxamide]	< 1000 nM
CC(=O)c1nn(CC(=O)N2C[C@H](F)C[C@H]2C(=O)NCC23C4C5C6C4C2C6C53)c2ccc(-c3cnc(C)nc3)cc12 (stereo partly drawn) [Compound 16, (2S,4R)-1-(2-(3-Acetyl-5-(2-methylpyrimidin-5-yl)-1H-indazol-1-yl)acetyl)-N-(cuban-1-ylmethyl)-4-fluoropyrrolidine-2-carboxamide]	1000 to 10000 nM
CC(=O)c1nn(CC(=O)N2[C@@H]3C[C@@H]3C[C@H]2C(=O)NC/C(F)=C(/C)c2ccccc2)c2c(C)cc(-c3cnc(C)nc3)cc12 [Compound 17, (1R,3S,5R)-2-(2-(3-Acetyl-7-methyl-5-(2-methylpyrimidin-5-yl)-1H-indazol-1-yl)acetyl)-N-((E)-2-fluoro-3-phenylbut-2-en-1-yl)-2-azabicyclo[3.1.0]hexane-3-carboxamide]	< 1000 nM
CC(=O)c1nn(CC(=O)N2C[C@H](F)C[C@H]2C(=O)Nc2cccc(Br)n2)c2c(CN(C)C)cc(-c3cnc(C)nc3)cc12 [Compound 19, (2S,4R)-1-(2-(3-Acetyl-7-((dimethylamino)methyl)-5-(2-methylpyrimidin-5-yl)-1H-indazol-1-yl)acetyl)-N-(6-bromopyridin-2-yl)-4-fluoropyrrolidine-2-carboxamide]	< 1000 nM
CC(=O)c1nn(CC(=O)N2C[C@H](F)C[C@H]2C(=O)Nc2cccc(Br)n2)c2c(CF)cc(-c3cnc(C)nc3)cc12 [Compound 20, (2S,4R)-1-(2-(3-Acetyl-7-(fluoromethyl)-5-(2-methylpyrimidin-5-yl)-1H-indazol-1-yl)acetyl)-N-(6-bromopyridin-2-yl)-4-fluoropyrrolidine-2-carboxamide]	< 1000 nM
CC(=O)c1nn(CC(=O)N2C[C@H](F)C[C@H]2C(=O)Nc2cccc(Br)n2)c2c(Cc3ncc(C)cn3)cc(-c3cnc(C)nc3)cc12 [Compound 21, (2S,4R)-1-(2-(3-acetyl-7-((5-methylpyrimidin-2-yl)methyl)-5-(2-methylpyrimidin-5-yl)-1H-indazol-1-yl)acetyl)-N-(6-bromopyridin-2-yl)-4-fluoropyrrolidine-2-carboxamide]	< 1000 nM
CC(=O)c1nn(CC(=O)N2C3CC3(CN3CCNCC3)C[C@H]2C(=O)Nc2nc(Br)ccc2C)c2ccc(-c3cnc(C)nc3)cc12 (stereo partly drawn) [Compound 22, (3S)-2-(2-(3-Acetyl-5-(2-methylpyrimidin-5-yl)-1H-indazol-1-yl)acetyl)-N-(6-bromo-3-methylpyridin-2-yl)-5-(piperazin-1-ylmethyl)-2-azabicyclo[3.1.0]hexane-3-carboxamide]	< 1000 nM
CC(=O)c1nn(CC(=O)N2C[C@H](F)C[C@H]2C(=O)Nc2nc(Br)ccc2CC#N)c2ccc(-c3cnc(C)nc3)cc12 [Compound 23, (2S,4R)-1-(2-(3-Acetyl-5-(2-methylpyrimidin-5-yl)-1H-indazol-1-yl)acetyl)-N-(6-bromo-3-(cyanomethyl)pyridin-2-yl)-4-fluoropyrrolidine-2-carboxamide]	< 1000 nM
CC(=O)c1nn(CC(=O)N2C3CC3(CN3CCN(C)CC3)C[C@H]2C(=O)Nc2nc(Br)ccc2C)c2ccc(-c3cnc(C)nc3)cc12 (stereo partly drawn) [Compound 24, (3S)-2-(2-(3-Acetyl-5-(2-methylpyrimidin-5-yl)-1H-indazol-1-yl)acetyl)-N-(6-bromo-3-methylpyridin-2-yl)-5-((4-methylpiperazin-1-yl)methyl)-2-azabicyclo[3.1.0]hexane-3-carboxamide]	< 1000 nM
COC(=O)c1cc(-c2cnc(C)nc2)cc2c(C(C)=O)nn(CC(=O)N3C[C@H](F)C[C@H]3C(=O)Nc3cccc(Br)n3)c12 [Compound 25, Methyl 3-acetyl-1-(2-((2S,4R)-2-((6-bromopyridin-2-yl)carbamoyl)-4-fluoropyrrolidin-1-yl)-2-oxoethyl)-5-(2-methylpyrimidin-5-yl)-1H-indazole-7-carboxylate]	< 1000 nM
CC(=O)c1nn(CC(=O)N2C3CC3(CN)C[C@H]2C(=O)Nc2nc(Br)ccc2C)c2ccc(-c3cnc(C)nc3)cc12 (stereo partly drawn) [Compound 26, (3S)-2-(2-(3-Acetyl-5-(2-methylpyrimidin-5-yl)-1H-indazol-1-yl)acetyl)-5-(aminomethyl)-N-(6-bromo-3-methylpyridin-2-yl)-2-azabicyclo[3.1.0]hexane-3-carboxamide]	1000 to 10000 nM
CC(=O)c1nn(CC(=O)N2[C@H](C(=O)Nc3nc(Br)c(F)cc3C)C[C@@]3(C)C[C@@H]23)c2c(C)cc(-c3cnc(C)nc3)cc12 [Compound 27, (1R,3S,5R)-2-(2-(3-acetyl-7-methyl-5-(2-methylpyrimidin-5-yl)-1H-indazol-1-yl)acetyl)-N-(6-bromo-5-fluoro-3-methylpyridin-2-yl)-5-methyl-2-azabicyclo[3.1.0]hexane-3-carboxamide]	< 1000 nM
C=CCOCc1ccc(Br)nc1NC(=O)[C@@H]1C[C@]2(COCC=C)C[C@@H]2N1C(=O)Cn1nc(C(C)=O)c2cc(-c3cnc(C)nc3)ccc21 [Compound 29, (1S,3S,5R)-2-(2-(3-Acetyl-5-(2-methylpyrimidin-5-yl)-1H-indazol-1-yl)acetyl)-5-((allyloxy)methyl)-N-(3-((allyloxy)methyl)-6-bromopyridin-2-yl)-2-azabicyclo[3.1.0]hexane-3-carboxamide]	< 1000 nM
CC(=O)c1nn(CC(=O)N2[C@H](C(=O)Nc3nc(Br)ccc3C)C[C@@]3(C)C[C@@H]23)c2c(CF)cc(-c3cnc(C)nc3)cc12 [Compound 31, (1R,3S,5R)-2-(2-(3-Acetyl-7-(fluoromethyl)-5-(2-methylpyrimidin-5-yl)-1H-indazol-1-yl)acetyl)-N-(6-bromo-3-methylpyridin-2-yl)-5-methyl-2-azabicyclo[3.1.0]hexane-3-carboxamide]	< 1000 nM
COCc1cc(-c2cnc(C)nc2)cc2c(C(C)=O)nn(CC(=O)N3C4CC4(COC)C[C@H]3C(=O)Nc3cccc(Br)n3)c12 (stereo partly drawn) [Compound 32, (3S)-2-(2-(3-Acetyl-7-(methoxymethyl)-5-(2-methylpyrimidin-5-yl)-1H-indazol-1-yl)acetyl)-N-(6-bromopyridin-2-yl)-5-(methoxymethyl)-2-azabicyclo[3.1.0]hexane-3-carboxamide]	< 1000 nM
CC(=O)c1nn(CC(=O)N2[C@H](C(=O)Nc3cccc(OC(F)(F)F)c3F)C[C@@]3(C)C[C@@H]23)c2c(C)cc(-c3cnc(C)nc3)cc12 [Compound 33, (1R,3S,5R)-2-(2-(3-Acetyl-7-methyl-5-(2-methylpyrimidin-5-yl)-1H-indazol-1-yl)acetyl)-N-(2-fluoro-3-(trifluoromethoxy)phenyl)-5-methyl-2-azabicyclo[3.1.0]hexane-3-carboxamide]	< 1000 nM
CC(=O)c1nn(CC(=O)N2[C@H](C(=O)N[C@@H](C)C(F)=C(C)C)C[C@@]3(C)C[C@@H]23)c2c(C)cc(-c3cnc(C)nc3)cc12 [Compound 34, (1R,3S,5R)-2-(2-(3-Acetyl-7-methyl-5-(2-methylpyrimidin-5-yl)-1H-indazol-1-yl)acetyl)-N—((S)-3-fluoro-4-methylpent-3-en-2-yl)-5-methyl-2-azabicyclo[3.1.0]hexane-3-carboxamide]	< 1000 nM
CC(=O)c1nn(CC(=O)N2[C@H](C(=O)Nc3ccn(CC(F)(F)F)n3)C[C@@]3(C)C[C@@H]23)c2c(C)cc(-c3cnc(C)nc3)cc12 [Compound 35, (1R,3S,5R)-2-(2-(3-Acetyl-7-methyl-5-(2-methylpyrimidin-5-yl)-1H-indazol-1-yl)acetyl)-5-methyl-N-(1-(2,2,2-trifluoroethyl)-1H-pyrazol-3-yl)-2-azabicyclo[3.1.0]hexane-3-carboxamide]	< 1000 nM
CC(=O)c1nn(CC(=O)N2[C@H](C(=O)Nc3cccc(C(F)(F)F)n3)C[C@@]3(C)C[C@@H]23)c2c(C)cc(-c3cnc(C)nc3)cc12 [Compound 36, (1R,3S,5R)-2-(2-(3-Acetyl-7-methyl-5-(2-methylpyrimidin-5-yl)-1H-indazol-1-yl)acetyl)-5-methyl-N-(6-(trifluoromethyl)pyridin-2-yl)-2-azabicyclo[3.1.0]hexane-3-carboxamide]	< 1000 nM
CC(=O)c1nn(CC(=O)N2[C@H](C(=O)Nc3cccc(OC(F)(F)F)n3)C[C@@]3(C)C[C@@H]23)c2c(C)cc(-c3cnc(C)nc3)cc12 [Compound 37, (1R,3S,5R)-2-(2-(3-Acetyl-7-methyl-5-(2-methylpyrimidin-5-yl)-1H-indazol-1-yl)acetyl)-5-methyl-N-(6-(trifluoromethoxy)pyridin-2-yl)-2-azabicyclo[3.1.0]hexane-3-carboxamide]	< 1000 nM
